Values joined by “and” are separate entries in the source; they are usually repeats but may differ in a detail not shown here. Equal entries are not always repeated.
Target: Gamma-aminobutyric acid receptor subunit alpha-1 (Rattus norvegicus, UniProt P62813)
Sequence (P62813 whole entry): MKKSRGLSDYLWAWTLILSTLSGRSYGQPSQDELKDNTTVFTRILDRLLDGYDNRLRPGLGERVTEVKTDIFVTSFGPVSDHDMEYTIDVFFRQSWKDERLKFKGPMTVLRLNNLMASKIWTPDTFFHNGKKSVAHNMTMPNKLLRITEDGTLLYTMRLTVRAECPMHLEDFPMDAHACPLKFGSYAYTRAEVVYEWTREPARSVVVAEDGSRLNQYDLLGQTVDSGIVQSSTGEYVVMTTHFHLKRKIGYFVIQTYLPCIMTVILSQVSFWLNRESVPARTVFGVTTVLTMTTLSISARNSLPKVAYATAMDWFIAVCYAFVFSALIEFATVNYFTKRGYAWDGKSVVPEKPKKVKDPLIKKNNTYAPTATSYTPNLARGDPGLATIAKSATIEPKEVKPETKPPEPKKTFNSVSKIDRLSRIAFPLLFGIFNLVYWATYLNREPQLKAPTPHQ

| SMILES | Ki |
| --- | --- |
| Cc1nnc2ccc(-c3cccc(C(F)(F)F)c3)nn12 | 1310 nM |
| CN1C(=O)CN=C(c2ccccc2F)c2cc([N+](=O)[O-])ccc21 [Flunitrazepam] | 1.37 nM and 1.52 nM |

Source: BindingDB's records for doi:10.1016/0922-4106(95)90014-4 (University of Cagliari, 1995)
